Laboratory results taken from US20210139959A1, “MODIFIED NUCLEOTIDE TRIPHOSPHATES FOR MOLECULAR ELECTRONIC SENSORS” (priority 2016, published 2021).

Test system: polymerase, e.g., E. coli Pol I
Details: DNA template A20-C3-A30-G (SEQ ID NO: 3), FIG. 9; T signals are increased current; interpretation of the data
Text: In this example, 7-deaza-dGTP (see FIG. 14B) was used as a modified dGTP. The signals were obtained for the DNA template {GTCA}10-[sequence] (SEQ ID NO: 2), comprising the 7-deaza modified dGTP.
In this embodiment, the signal data are obtained for the DNA template {GTCA}10-[sequence] (SEQ ID NO: 2), when a modified dGTP is used (7-deaza dGTP of FIG. 14B).

In the case of `Nc1nc2c(ccn2[C@H]2C[C@H](O)[C@@H](COP(=O)(O)OP(=O)(O)OP(=O)(O)O)O2)c(=O)[nH]1` [7-deaza dGTP, 7-deaza-2′-deoxyguanosine-5′-triphosphate], the “modified dGTP incorporation signal (current)” value is reported as “reduction in current”.
